Assay results taken from patent US20120122906A1, “NOVEL SULFONAMIDE DERIVATIVE AND PHARMACEUTICAL PRODUCT CONTAINING SAME” (KOWA COMPANY, LTD., priority 2009, published 2012).

Key:
[1] = target: T1, angiotensin II type 1 receptor (Oryctolagus cuniculus, UniProt P34976); assay: Angiotensin II antagonistic activity in isolated rabbit blood vessels (angiotensin II-induced contraction of thoracic aorta ring); details: 0.1 μM compound, angiotensin II (10 nM)-induced contraction, read-out: Angiotensin II activity inhibition rate (%) at 0.1 μM concentration
T1 construct: By using a specimen of isolated rabbit blood vessels; from tissue; host or cells: rabbit thoracic aorta ring (New Zealand White, male)
T1 sequence (P34976 1-359): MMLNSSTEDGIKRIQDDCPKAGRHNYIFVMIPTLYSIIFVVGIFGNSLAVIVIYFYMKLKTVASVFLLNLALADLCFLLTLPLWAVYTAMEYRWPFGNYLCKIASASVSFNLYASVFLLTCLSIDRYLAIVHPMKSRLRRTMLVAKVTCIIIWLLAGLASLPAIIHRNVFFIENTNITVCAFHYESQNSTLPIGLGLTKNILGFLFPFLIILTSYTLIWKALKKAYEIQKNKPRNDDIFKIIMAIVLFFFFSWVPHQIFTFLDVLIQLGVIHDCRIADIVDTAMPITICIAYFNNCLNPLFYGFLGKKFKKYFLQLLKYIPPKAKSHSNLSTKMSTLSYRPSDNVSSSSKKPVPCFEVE
Procedure: By using a specimen of isolated rabbit blood vessels, antagonistic activity of the compounds of the invention against angiotensin II type 1 receptor was estimated from a dose-response curve of angiotensin II-induced blood vessel contraction. Specifically, the specimen of thoracic aorta ring of a rabbit (New Zealand White: male, 2.4 to 3.0 kg) was suspended in a magnus bath filled with Krebs-Henseleite buffer (composition: 118 mM NaCl, 4.7 mM KCl, 2.55 mM CaCl2, 1.18 mM MgSO4, 1.18 mM KH2PO4, 24.88 mM NaHCO3, and 11.1 mM D-glucose), and angiotensin II (10 nM)-induced contraction was obtained in the presence of the compounds of each example (1 nmol to 10 μmol/L). During the measurement, the inside temperature of the magnus bath was maintained at 37° C. and the bath was continuously ventilated with a sufficient amount of mixed gas (95% O2 and 5% CO2). The angiotensin II-induced contraction was converted into a relative value (%) that is based on the angiotensin II (10 nM)-induced contraction in the absence of the compounds of each example. From the concentration-response curve obtained therefrom, 50% inhibition concentration (IC50 value) was calculated by using SAS Preclinical Package Ver 5.0 (trade name, manufactured by SAS institute Japan Co., Tokyo, Japan), which is a statistical analysis program.

human PPARγ2 = target: T2, human PPARγ2 (Homo sapiens, UniProt P37231); assay: PPARγ activation activity, Gal4-PPARγ2 LBD luciferase transfection assay in COST cells; format: cell-based; details: Gal4-human PPARγ2 LBD luciferase reporter, 16 hours, rosiglitazone = 100%
T2 construct: the amino acids 182 to 505 of human PPARγ2; expressed in transfected cells
T2 sequence (P37231 182-505): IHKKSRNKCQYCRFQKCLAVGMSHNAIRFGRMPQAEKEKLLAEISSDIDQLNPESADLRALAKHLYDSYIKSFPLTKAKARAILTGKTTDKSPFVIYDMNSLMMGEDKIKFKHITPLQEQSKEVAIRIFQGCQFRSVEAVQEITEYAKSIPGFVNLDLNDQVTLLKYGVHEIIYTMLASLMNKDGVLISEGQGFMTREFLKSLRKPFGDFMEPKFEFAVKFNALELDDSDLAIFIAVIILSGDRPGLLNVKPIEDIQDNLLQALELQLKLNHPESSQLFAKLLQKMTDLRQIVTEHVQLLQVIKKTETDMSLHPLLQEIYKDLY
Procedure: The agonistic activity of the compounds of the invention on PPARγ was measured based on the transfection assay using COST cells (DS Pharma Biomedical Co., Ltd., Osaka, Japan), which are the cell line derived from the kidney of the African green monkey. COST cells were cultured under 5% CO2 concentration, and DMEM medium containing 10% fetal bovine serum, glutamic acid, and antibiotics was used as a medium.
As an expression vector, a chimera in which DNA binding domain of Gal4, which is a yeast transcription factor, and ligand binding domain of human PPARγ2 are fused, i.e., a fused product between the amino acids 1 to 147 of Gal4 transcription factor and the amino acids 182 to 505 of human PPARγ2, was used. Furthermore, as a reporter vector, a firefly luciferase containing five copies of Gal4 recognition sequence in the promoter region was used. Plasmid transfection to the cells was performed according to a method which uses jetPEI (trade name, manufactured by Funakoshi Co., Ltd., Tokyo, Japan). Furthermore, β-galactosidase expression vector was employed as an internal standard.
After the transfection of the cells, the medium was replaced with a DMEM medium (containing 1% serum) added with the compound, and the cells were further cultured for 16 hours. After that, the luciferase activity and β-galactosidase activity in the cell lysis solution were measured.
For the present test, dimethyl sulfoxide (DMSO) was used for dissolution and dilution of the test compounds, and during the cell treatment, the DMSO concentration in DMEM medium (containing 1% serum) was adjusted to 0.1%. As a positive compound, rosiglitazone (trade name, manufactured by ALEXIS Corporation, Switzerland) was used. The luciferase activity (%) of the test compounds (1 to 30 μmol/L) was calculated when the luciferase activity of rosiglitazone (3 to 10 μmol/L) is 100% and the luciferase activity in the absence of the test compound is 0%. The 50% effective concentration of the test compound (EC50, 50% effect concentration) was calculated by using SAS Preclinical Package Ver 5.0 (trade name, manufactured by SAS institute Japan Co., Tokyo, Japan), which is a statistical analysis program.
Under the same condition, the PPARγ activation activity of telmisartan, i.e., EC50, was 1 to 5 μM. In addition, it was confirmed that compounds of Examples not shown in Table 2 also have PPARγ activation activity at a concentration of 30 μM.

inhibition at 0.1 µM [1]: 100%
EC50 (human PPARγ2): 3.52 µM
Compound: CCCCc1nc(C)n(-c2ncc(OCC)cn2)c(=O)c1Cc1ccc(-c2ccccc2S(=O)(=O)NC(=O)C2CCCC2)cc1 [Example 9, N-{4′-{[4-butyl-1-(5-ethoxypyrimidin-2-yl)-2-methyl-6-oxo-1,6-dihydropyrimidin-5-yl]methyl}biphenyl-2-ylsulfonyl}cyclopentanecarboxamide]
